From patent US20250154109A1, “SODIUM CHANNEL BLOCKING COMPOUNDS, DERIVATIVES THEREOF, AND METHODS OF THEIR USE” (LATIGO BIOTHERAPEUTICS, INC, priority 2022, published 2025)
Counter-ions that a name gives are not always drawn.

Legend:
[1] = biological target: T1, human Nav1.8 (Homo sapiens, UniProt Q9Y5Y9); experiment: Sophion Qpatch II assay (automated patch clamp); type: cell-based; conditions: resting state block (TP1 measurement), human Nav1.8 HEK293 cells, read-out: P1 IC50
Experimental: Compounds were tested on recombinant human Nav1.8/01 stably transfected HEK293 (Eurofins, CYL3025, St. Charles, MO) cells using the Qpatch II system (Sophion Bioscience A/S, Ballerup—Denmark), an automated patch clamp device. Cells were cultured at 37° C./5% CO2 in DMEM/F-12 supplemented with 10% fetal bovine serum, lx Non-Essential Amino Acids, and selection antibiotics (0.625 μg/mL Puromycin, 400 μg/mL Geneticin, and 100 μg/mL Hygromycin). One or two days prior to recording, cells were moved to a lower temperature 30° C./5% CO2 incubator to increase surface expression of the channels. On the day of the recordings, cells in culture dishes were washed twice with Ca^2+—Mg^2+ free DPBS and treated with Detachin (Genlantis, San Diego) for 3 minutes and then resuspended in Serum Free Medium (EX-CELL® ACF CHO Medium for Cell Culture (Sigma-Aldrich) supplemented with 0.04 mg/mL soybean trypsin Inhibitor and 25 mM HEPES (all components supplied by Sigma-Aldrich, St. Louis, MO) and allowed to recover for a minimum of 20 minutes in the onboard Qstirrer. All experiments were performed at ambient temperature. Intracellular solution contained (mM): CsCl, 50; CsF, 90; MgCl2, 2; EGTA, 5; HEPES, 10; pH adjusted to 7.2 with CsOH. Extracellular solution contained (mM): NaCl, 137; KCl, 4; CaCl2), 3.8; MgCl2, 1; HEPES, 10; Glucose, 10; pH adjusted to 7.4 with NaOH. 500 nM tetrodotoxin (TTX) was added to the extracellular solution to block endogenous TTX-sensitive sodium currents.
Compounds were tested in an interleaved manner across two cohorts of wells to develop an aggregate 8-point concentration response curve. Final concentrations include 0.5% DMSO and 0.03% pluronic Acid. The concentration range spanned a range from 0.01-300 nM. Compounds were diluted 1:10 with extracellular solution within their respective cohort. (R)-2-(4-fluoro-2-methylphenoxy)-N-(3-(S-methylsulfonimidoyl)phenyl)-5-(trifluoromethyl)nicotinamide served as a positive control while DMSO (0.5% by volume) served as a vehicle control to ascertain assay performance.
Whole cell patch clamp recordings were conducted according to Sophion standard procedure for Qpatch II®. Cells were held at a holding potential of −120 mV. A depolarizing step to 10 mV for 30 ms was applied (TP1 measurement), followed by a hyperpolarization step to −100 mV for 20 ms. Due to instability observed at long depolarized potentials, there were no second TP2 measurements attempted. Inter-sweep interval was 15 sec. Following establishment of the whole-cell configuration in extracellular solution, cells were washed twice in extracellular solution containing 0.5% DMSO and 0.03% pluronic acid to stabilize the baseline current. Compounds were then applied by the Qpatch II system into each well in an ascending manner within cohort and the current was recorded for five minutes for each concentration. Percent of current remaining was determined by taking the average of the last 5 sweeps within each concentration and normalizing to the latest pre-compound saline period. The potency of the compounds was assessed on resting state block (TP1 measurement) only to obtain IC50 values. Wells whose initial sodium current magnitude were below 2 nA or whole cell resistance fell below 100 MQ were excluded from analysis.
Examples 220 to 224, Examples 237 to 257 and Example 259 are assayed using Sophion Qpatch II assay described above.

[2] = biological target: T1, human Nav1.8; experiment: SyncroPatch384PE assay (automated patch clamp); type: cell-based; conditions: human Nav1.8/b3 CHO cells
[3] = inactivated state block (P2 measurement), read-out: P2 IC50
[4] = resting state block (P1 measurement), read-out: P1 IC50

T1 sequence (Q9Y5Y9 whole entry): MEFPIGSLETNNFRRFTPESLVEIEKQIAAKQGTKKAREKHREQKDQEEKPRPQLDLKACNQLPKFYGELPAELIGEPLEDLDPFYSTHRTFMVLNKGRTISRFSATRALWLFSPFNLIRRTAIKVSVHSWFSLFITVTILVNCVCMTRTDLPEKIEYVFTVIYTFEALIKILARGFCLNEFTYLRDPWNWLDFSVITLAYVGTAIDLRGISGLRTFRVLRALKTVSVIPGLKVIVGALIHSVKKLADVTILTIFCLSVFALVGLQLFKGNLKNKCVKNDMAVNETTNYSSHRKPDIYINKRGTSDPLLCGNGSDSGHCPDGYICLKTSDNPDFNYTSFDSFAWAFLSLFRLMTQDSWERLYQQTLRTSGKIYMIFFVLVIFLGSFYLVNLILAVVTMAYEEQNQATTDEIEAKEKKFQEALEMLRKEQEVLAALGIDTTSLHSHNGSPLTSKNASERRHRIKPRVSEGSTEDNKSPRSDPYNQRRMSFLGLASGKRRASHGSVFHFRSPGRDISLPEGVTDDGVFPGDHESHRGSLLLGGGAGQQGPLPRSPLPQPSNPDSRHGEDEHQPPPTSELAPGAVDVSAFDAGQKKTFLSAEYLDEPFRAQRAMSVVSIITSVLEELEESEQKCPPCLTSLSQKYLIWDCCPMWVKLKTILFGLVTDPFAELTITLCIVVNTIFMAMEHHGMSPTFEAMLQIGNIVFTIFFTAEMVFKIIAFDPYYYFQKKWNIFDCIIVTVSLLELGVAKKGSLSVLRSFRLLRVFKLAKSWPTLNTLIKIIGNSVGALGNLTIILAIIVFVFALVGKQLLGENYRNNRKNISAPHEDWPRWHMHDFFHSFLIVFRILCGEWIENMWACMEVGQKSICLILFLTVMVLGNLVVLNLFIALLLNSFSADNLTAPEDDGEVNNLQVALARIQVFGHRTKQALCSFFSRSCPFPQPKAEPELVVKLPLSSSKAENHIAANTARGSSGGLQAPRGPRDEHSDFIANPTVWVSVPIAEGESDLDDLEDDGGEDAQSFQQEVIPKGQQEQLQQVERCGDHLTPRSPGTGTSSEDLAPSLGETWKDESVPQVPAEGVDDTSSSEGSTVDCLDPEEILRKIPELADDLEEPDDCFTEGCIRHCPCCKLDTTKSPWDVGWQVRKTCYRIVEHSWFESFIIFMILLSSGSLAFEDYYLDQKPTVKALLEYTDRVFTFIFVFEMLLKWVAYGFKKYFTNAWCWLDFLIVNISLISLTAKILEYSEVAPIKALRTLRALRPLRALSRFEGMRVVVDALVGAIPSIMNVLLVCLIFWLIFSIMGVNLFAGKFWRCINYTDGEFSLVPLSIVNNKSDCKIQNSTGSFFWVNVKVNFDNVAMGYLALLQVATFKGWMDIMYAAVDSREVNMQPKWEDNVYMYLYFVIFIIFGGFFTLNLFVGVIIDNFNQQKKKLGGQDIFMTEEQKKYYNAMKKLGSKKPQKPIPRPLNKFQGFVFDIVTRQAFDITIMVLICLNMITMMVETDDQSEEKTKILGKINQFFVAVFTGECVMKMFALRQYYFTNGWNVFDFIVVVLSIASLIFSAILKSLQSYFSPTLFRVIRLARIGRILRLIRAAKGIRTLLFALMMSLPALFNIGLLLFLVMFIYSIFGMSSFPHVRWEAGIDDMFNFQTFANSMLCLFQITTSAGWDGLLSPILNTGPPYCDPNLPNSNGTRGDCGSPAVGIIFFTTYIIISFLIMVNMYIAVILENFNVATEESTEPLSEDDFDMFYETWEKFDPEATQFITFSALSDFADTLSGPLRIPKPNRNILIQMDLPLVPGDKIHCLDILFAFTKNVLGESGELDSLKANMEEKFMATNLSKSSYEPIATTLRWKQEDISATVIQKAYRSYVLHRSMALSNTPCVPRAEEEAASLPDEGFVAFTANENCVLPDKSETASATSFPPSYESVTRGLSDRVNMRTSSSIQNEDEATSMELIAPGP

Compound	IC50 [1]	IC50 [2, 3]	IC50 [2, 4]
C[S@](=N)(=O)c1cc(NC(=O)c2cc(Cl)c(C(F)(F)F)cc2N2CCC(F)(F)CC2)ccn1 [Example 247, (S)-5-chloro-2-(4,4-difluoropiperidin-1-yl)-N-(2-(S-methylsulfonimidoyl)pyridin-4-yl)-4-(trifluoromethyl)benzamide]	100 to 200 nM		
C[S@@](=N)(=O)c1cccc(NC(=O)c2cc(Cl)c(C(F)(F)F)cc2N2CCC(F)(F)CC2)c1 [Example 222, (R)-5-chloro-2-(4,4-difluoropiperidin-1-yl)-N-(3-(S-methylsulfonimidoyl)phenyl)-4-(trifluoromethyl)benzamide]	5 to 50 nM		
Cc1c(C(F)(F)F)cnc(N2CCCC(F)(F)CC2)c1C(=O)N[C@H]1C[C@H](C(N)=O)C1 [Example 257, N-((trans)-3-carbamoylcyclobutyl)-2-(4,4-difluoroazepan-1-yl)-4-methyl-5-(trifluoromethyl)nicotinamide]	50 to 100 nM		
C[S@](=N)(=O)c1cc(NC(=O)c2cc(Cl)c(C(F)(F)F)cc2N2CCC(F)(F)CC2)ccc1F [Example 249, (S)-5-chloro-2-(4,4-difluoropiperidin-1-yl)-N-(4-fluoro-3-(S-methylsulfonimidoyl)phenyl)-4-(trifluoromethyl)benzamide]	50 to 100 nM		
C[S@@](=N)(=O)c1cc(NC(=O)c2cc(Cl)c(C(F)(F)F)cc2N2CCC(C(F)(F)F)CC2)ccn1 [Example 243, (R)-5-chloro-N-(2-(S-methylsulfonimidoyl)pyridin-4-yl)-4-(trifluoromethyl)-2-(4-(trifluoromethyl)piperidin-1-yl)benzamide]	50 to 100 nM		
C[S@@](=N)(=O)c1cc(NC(=O)c2cc(Cl)c(C(F)(F)F)cc2N2CCC(F)(F)CC2)ccn1 [Example 248, (R)-5-chloro-2-(4,4-difluoropiperidin-1-yl)-N-(2-(S-methylsulfonimidoyl)pyridin-4-yl)-4-(trifluoromethyl)benzamide]	50 to 100 nM		
Cc1c(C(F)(F)F)cnc(N2CCCC(F)(F)CC2)c1C(=O)N[C@H]1C[C@H](C(=O)O)C1 [Example 256, (trans)-3-(2-(4,4-difluoroazepan-1-yl)-4-methyl-5-(trifluoromethyl)nicotinamido)cyclobutane-1-carboxylic acid]	50 to 100 nM		
Cc1c(C(F)(F)F)cnc(N2CCCC(F)(F)CC2)c1C(=O)N[C@H]1C[C@@H](C(N)=O)C1 [Example 259, N-((cis)-3-carbamoylcyclobutyl)-2-(4,4-difluoroazepan-1-yl)-4-methyl-5-(trifluoromethyl)nicotinamide]	50 to 100 nM		
Cc1c(C(F)(F)F)cnc(N2CCO[C@H](C(F)(F)F)C2)c1C(=O)Nc1ccnc([S@](C)(=N)=O)c1 [Example 237, 4-methyl-N-(2-((R)—S-methylsulfonimidoyl)pyridin-4-yl)-5-(trifluoromethyl)-2-((S)-2-(trifluoromethyl)morpholino)nicotinamide]	50 to 100 nM		
Cc1c(C(F)(F)F)cnc(N2CCC(F)(F)CC2)c1C(=O)Nc1cccc([S@](C)(=N)=O)c1 [Example 241, (R)-2-(4,4-difluoropiperidin-1-yl)-4-methyl-N-(3-(S-methylsulfonimidoyl)phenyl)-5-(trifluoromethyl)nicotinamide]	5 to 50 nM		
C[S@@](=N)(=O)c1cc(NC(=O)c2cc(Cl)c(C(F)(F)F)cc2N2CCC(F)(F)CC2)ccc1F [Example 254, (R)-5-chloro-2-(4,4-difluoropiperidin-1-yl)-N-(4-fluoro-3-(S-methylsulfonimidoyl)phenyl)-4-(trifluoromethyl)benzamide]	5 to 50 nM		
Cc1c(C#N)c(C(F)(F)F)nc(N2CCCC(F)(F)CC2)c1C(=O)Nc1cccc([S@@](C)(=O)=NC(=O)C2(N)CCC2)c1 [Example 73, (R)-N-(3-(N-(1-aminocyclobutane-1-carbonyl)-S-methylsulfonimidoyl)phenyl)-5-cyano-2-(4,4-difluoroazepan-1-yl)-4-methyl-6-(trifluoromethyl)nicotinamide]		5 to 50 nM	50 to 100 nM
Cc1c(-c2nccs2)cnc(N2CCCC(F)(F)CC2)c1C(=O)Nc1cccc(S(C)(=N)=O)c1 (stereo not shown) [Example 98, 2-(4,4-difluoroazepan-1-yl)-4-methyl-N-(3-(S-methylsulfonimidoyl)phenyl)-5-(thiazol-2-yl)nicotinamide]		5 to 50 nM	5 to 50 nM
CNCC(=O)N=[S@](C)(=O)c1cccc(NC(=O)c2c(N3CCCC(F)(F)CC3)ncc(-c3ccc(F)c(F)c3)c2C)c1 [Example 60, (R)-2-(4,4-difluoroazepan-1-yl)-5-(3,4-difluorophenyl)-4-methyl-N-(3-(S-methyl-N-(methylglycyl)sulfonimidoyl)phenyl)nicotinamide]		≤ 5 nM	≤ 5 nM
Cc1c(C(F)(F)F)nnc(N2CCCC(F)(F)CC2)c1C(=O)Nc1cccc([S@@](C)(=O)=NC(=O)[C@@H](C)O)c1 [Example 179, 3-(4,4-difluoroazepan-1-yl)-N-(3-((R)-N-((R)-2-hydroxypropanoyl)-S-methylsulfonimidoyl)phenyl)-5-methyl-6-(trifluoromethyl)pyridazine-4-carboxamide]		≤ 5 nM	≤ 5 nM
Cc1nc(N2CCC3(CC2)CC3)c(C(=O)Nc2cccc([S@@](C)(=N)=O)c2)cc1Cl [Example 27, (S)-5-Chloro-6-methyl-N-(3-(S-methylsulfonimidoyl)phenyl)-2-(6-azaspiro[2.5]octan-6-yl)nicotinamide]		≤ 5 nM	≤ 5 nM
O=C(Nc1ccnnc1)c1nnc(C(F)(F)F)cc1N1CCCC(F)(F)CC1 [Example 32, 4-(4,4-Difluoroazepan-1-yl)-N-(pyridazin-4-yl)-6-(trifluoromethyl)pyridazine-3-carboxamide]		> 200 nM	> 200 nM
Cc1c(-c2cnn(C)c2)cnc(N2CCCC(F)(F)CC2)c1C(=O)Nc1cccc([S@@](C)(=O)=NC(=O)C2(N)CC2)c1 [Example 53, (R)-N-(3-(N-(1-aminocyclopropane-1-carbonyl)-S-methylsulfonimidoyl)phenyl)-2-(4,4-difluoroazepan-1-yl)-4-methyl-5-(1-methyl-1H-pyrazol-4-yl)nicotinamide formate]		5 to 50 nM	5 to 50 nM
Cc1c(C(=O)Nc2cccc([S@@](C)(=O)=NC(=O)[C@@H](C)O)c2)c(N2CCCC(F)(F)CC2)nc(C(F)(F)F)c1-c1cnn(C)c1 [Example 236, 2-(4,4-difluoroazepan-1-yl)-N-(3-((R)-N-((R)-2-hydroxypropanoyl)-S-methylsulfonimidoyl)phenyl)-4-methyl-5-(1-methyl-1H-pyrazol-4-yl)-6-(trifluoromethyl)nicotinamide]		≤ 5 nM	≤ 5 nM
Cc1nc(C(F)(F)F)nc(N2CCCC(F)(F)CC2)c1C(=O)Nc1cccc([S@](C)(=N)=O)c1 [Example 135, (R)-4-(4,4-difluoroazepan-1-yl)-6-methyl-N-(3-(S-methylsulfonimidoyl)phenyl)-2-(trifluoromethyl)pyrimidine-5-carboxamide]		5 to 50 nM	5 to 50 nM
Cc1c(-c2cnn(C(F)F)c2)cnc(N2CCCC(F)(F)CC2)c1C(=O)Nc1cccc([S@](C)(=N)=O)c1 [Example 159, (R)-2-(4,4-difluoroazepan-1-yl)-5-(1-(difluoromethyl)-1H-pyrazol-4-yl)-4-methyl-N-(3-(S-methylsulfonimidoyl)phenyl)nicotinamide]		5 to 50 nM	5 to 50 nM
